Measurements taken from ChEMBL document CHEMBL1125491, “Potential prodrug derivatives of 2',3'-didehydro-2',3'-dideoxynucleosides. Preparations and antiviral activities” (J Med Chem, 1992).

tested on: MT4; experiment: Concentration required to reduce the number of viable uninfected MT-4 cells by 50%.; format: functional; details: Homo sapiens

Row | SMILES | CC50 [µM]
1 | Nc1ccn(C2C=CC(COP(=O)(O)Oc3ccccc3)O2)c(=O)n1 (stereo unspecified) | 35
2 | CC1=CN([C@H]2C[C@H](OP(=O)(O)OC[C@@H]3C=C[C@H](n4cnc5c(N)ncnc54)O3)[C@@H](CO)O2)C(=O)NC1N (stereo partly specified) | 198
3 | Nc1ccn(C2C=CC(COP(O)(=S)c3ccccc3)O2)c(=O)n1 (stereo unspecified) | > 500
4 | COP(=O)(O)OCC1C=CC(n2ccc(N)nc2=O)O1 (stereo unspecified) | 27
5 | Nc1ncnc2c1ncn2C1C=CC(COP(=O)(O)Oc2ccccc2)O1 (stereo unspecified) | 157
6 | Nc1ccn([C@H]2CC[C@@H](CO)O2)c(=O)n1 [ZALCITABINE] | 30
7 | COP(=O)(O)OCC1C=CC(n2cnc3c(N)ncnc32)O1 (stereo unspecified) | 168
8 | Nc1ncnc2c1ncn2C1C=CC(COP(=O)(O)c2ccccc2)O1 (stereo unspecified) | > 500
9 | Nc1ncnc2c1ncn2[C@H]1CC[C@@H](CO)O1 | > 100
10 | Nc1ncnc2c1ncn2C1C=CC(COP(O)(=S)c2ccccc2)O1 (stereo unspecified) | > 500
11 | Nc1ccn(C2C=CC(COP(=O)(O)c3ccccc3)O2)c(=O)n1 (stereo unspecified) | > 500
12 | CC1=CN([C@H]2C[C@H](OP(=O)(O)OC[C@@H]3C=C[C@H](n4ccc(N)nc4=O)O3)[C@@H](CO)O2)C(=O)NC1N (stereo partly specified) | 28

tested on: Human immunodeficiency virus 2; experiment: Concentration required to protect 50% of HIV-2 infected MT-4 cells against viral cytopathicity.; format: functional, organism-based; details: Human immunodeficiency virus 2, MT4

Row | SMILES | EC50 [µM]
13 | Nc1ccn(C2C=CC(COP(=O)(O)Oc3ccccc3)O2)c(=O)n1 (stereo unspecified) | 1.5
14 | CC1=CN([C@H]2C[C@H](OP(=O)(O)OC[C@@H]3C=C[C@H](n4cnc5c(N)ncnc54)O3)[C@@H](CO)O2)C(=O)NC1N (stereo partly specified) | 29
15 | Nc1ccn(C2C=CC(COP(O)(=S)c3ccccc3)O2)c(=O)n1 (stereo unspecified) | > 500
16 | COP(=O)(O)OCC1C=CC(n2ccc(N)nc2=O)O1 (stereo unspecified) | 1.7
17 | Nc1ncnc2c1ncn2C1C=CC(COP(=O)(O)Oc2ccccc2)O1 (stereo unspecified) | 37
18 | Nc1ccn([C@H]2CC[C@@H](CO)O2)c(=O)n1 [ZALCITABINE] | 0.69
19 | COP(=O)(O)OCC1C=CC(n2cnc3c(N)ncnc32)O1 (stereo unspecified) | 58
20 | Nc1ncnc2c1ncn2C1C=CC(COP(=O)(O)c2ccccc2)O1 (stereo unspecified) | > 500
21 | Nc1ncnc2c1ncn2[C@H]1CC[C@@H](CO)O1 | 72
22 | Nc1ncnc2c1ncn2C1C=CC(COP(O)(=S)c2ccccc2)O1 (stereo unspecified) | > 500
23 | Nc1ccn(C2C=CC(COP(=O)(O)c3ccccc3)O2)c(=O)n1 (stereo unspecified) | 136
24 | CC1=CN([C@H]2C[C@H](OP(=O)(O)OC[C@@H]3C=C[C@H](n4ccc(N)nc4=O)O3)[C@@H](CO)O2)C(=O)NC1N (stereo partly specified) | 1.6

tested on: Human immunodeficiency virus 1; experiment: Concentration required to protect 50% of HIV-1 infected MT-4 cells against viral cytopathicity.; format: functional, organism-based; details: Human immunodeficiency virus 1, MT4

Row | SMILES | EC50 [µM]
25 | Nc1ccn(C2C=CC(COP(=O)(O)Oc3ccccc3)O2)c(=O)n1 (stereo unspecified) | 1.9
26 | CC1=CN([C@H]2C[C@H](OP(=O)(O)OC[C@@H]3C=C[C@H](n4cnc5c(N)ncnc54)O3)[C@@H](CO)O2)C(=O)NC1N (stereo partly specified) | 26
27 | Nc1ccn(C2C=CC(COP(O)(=S)c3ccccc3)O2)c(=O)n1 (stereo unspecified) | > 500
28 | COP(=O)(O)OCC1C=CC(n2ccc(N)nc2=O)O1 (stereo unspecified) | 3.1
29 | Nc1ncnc2c1ncn2C1C=CC(COP(=O)(O)Oc2ccccc2)O1 (stereo unspecified) | 24
30 | Nc1ccn([C@H]2CC[C@@H](CO)O2)c(=O)n1 [ZALCITABINE] | 0.91
31 | COP(=O)(O)OCC1C=CC(n2cnc3c(N)ncnc32)O1 (stereo unspecified) | 38
32 | Nc1ncnc2c1ncn2C1C=CC(COP(=O)(O)c2ccccc2)O1 (stereo unspecified) | > 500
33 | Nc1ncnc2c1ncn2[C@H]1CC[C@@H](CO)O1 | 41
34 | Nc1ncnc2c1ncn2C1C=CC(COP(O)(=S)c2ccccc2)O1 (stereo unspecified) | > 500
35 | Nc1ccn(C2C=CC(COP(=O)(O)c3ccccc3)O2)c(=O)n1 (stereo unspecified) | 111
36 | CC1=CN([C@H]2C[C@H](OP(=O)(O)OC[C@@H]3C=C[C@H](n4ccc(N)nc4=O)O3)[C@@H](CO)O2)C(=O)NC1N (stereo partly specified) | 1.8
